Data: patent US20060089335A1, “Compositions and methods for enhancing cognitive function and synaptic plasticity” (priority 2003, published 2006)
Values joined by “and” are separate entries in the source; they are usually repeats but may differ in a detail not shown here. Equal entries are not always repeated. “Also recorded” adds a separate entry of the source.

Key:
[1] = system: NMDA receptors at single spine; assay: calcium imaging and NMDA currents at single spines; type: cell-based, rat
[2] = rat, in vivo
[3] = system: cultured hippocampal neurons; assay: field EPSC (fEPSC) recording before and after TBS; type: cell-based, rat
Method: (§1) Electrophysiology. Dual whole cell perforated patch clamp recordings were made on two interconnected cultured hippocampal pyramidal neurons. Perforated patch pipettes were front-filled with a solution containing (in mM): CsOH, 127; D-gluconic acid, 127; CsCl, 4; HEPES, 10; NaCl, 8; EGTA, 0.4; pH was adjusted to 7.25 with CsOH, and then back-filled with the same solution containing […] amphotericin B (Sigma, St. Louis, Mo.). Extracellular solution contained (in mM): NaCl, 145; KCl, 3; glucose, 15; HEPES, 10; MgCl2, 0.8-1.2; CaCl2, 1.2; 0.005 glycine (Sigma), 0.05 picrotoxin (Sigma); pH adjusted to 7.4 with NaOH. MgCl2 concentration was matched to its concentration in culture medium. In experiments where effects of drugs on neuronal activity were quantified (FIG. 4D), recordings were done in culture medium (with HEPES replacing bicarbonate/CO2 to maintain pH). All experiments were performed at room temperature. For assaying synaptic connectivity, each neuron was stimulated by 1 ms step depolarization from −70 to +30 mV in voltage-clamp mode. Only neurons with monosynaptic connections were used. […] Recordings with access resistance>20 MΩ or that varied substantially were rejected from analysis.
To confirm that such a prominent TBS-induced increase in Pr does contribute to the enhancement of total synaptic strength, the magnitude of potentiation was tested electrophysiologically by sampling field EPSCs (fEPSCs) before and after TBS. The whole cell recording was obtained under perforated patch configuration to avoid wash-out of the intracellular components critical for synaptic plasticity. The membrane potential was clamped at −70 mV and EPSCs were evoked by field stimulation at a sampling frequency of 0.03 Hz. [Mg^2+]o during sampling was 4 mM to reduce background neural activity. The intensity of field stimulation was adjusted to produce a half maximal fEPSC amplitude. After 30 minutes of sampling were employed to determine the baseline level of synaptic strength, the bath solution was changed to 1.2 mM [Mg^2+]o and the recording configuration to current-clamp mode to allow for membrane voltage fluctuations. TBS was delivered at the same amplitude and temporal profiles as for the FM experiments.

[4] = system: cultured hippocampal neurons; assay: control recordings of membrane potential, synaptic inputs and firing; type: cell-based, rat
Method: as §1

[5] = system: postsynaptic locations of cultured hippocampal neurons; assay: postsynaptic evoked current response to iontophoretic glutamate (AMPA-R insertion); type: cell-based, rat
Excerpt: These were generally as described in the preceding examples. Glutamatergic iontophoresis was perfomed as described [Murnick 2000].
Since we wished to correlate the above pre-synaptic findings to the plasticity of single or small clusters of postsynaptic locations, this ruled out traditional double-patch plasticity experiments in which heterogeneous populations of connections are studied. Such studies also usually confound pre-synaptic and postsynaptic effects. For this purpose, we developed a technique of high-temporal and spatial resolution glutamatergic iontophoresis that allows us to stimulate single or small clusters of postsynaptic locations (resolution ˜2 μm, 1 ms; [Murnick 2000]).
To determine whether a decrease in overall activity of a neural network leads to increased plasticity (i.e., an increase in synaptic strength in response to a pattern of stimulation) of postsynaptic locations, we assessed the effect of treatment with Mg^++ on the ability of postsynaptic locations to respond to glutamate. As described above, Mg^++ blocks the NMDA receptor channel at resting membrane potential, so Mg^++ treatment reduces the overall activity level of the neural network. As also described above, increases in postsynaptic intracellular Ca^++ stimulated by activation of NMDA receptors leads to recruitment of AMPA receptors and their insertion into the postsynaptic membrane. […]

[6] = system: excitatory and inhibitory terminals
[7] = system: presynaptic terminals of cultured hippocampal neurons; assay: TBS-induced presynaptic plasticity measured by FM 1-43 dye uptake in hippocampal cultures; type: cell-based, rat
[8] = system: recognition memory of 1-year old rats; assay: novel object recognition; settings: rat, in vivo
Method: Behavior test: Novel object recognition. The subjects were 20 experimentally naive, female, Sprague-Dawley rats (Charles River), 1 year old at the beginning of the experiment. They were housed two per cage with continuous access to food and water under a 12:12 light-dark cycle, with light onset at 8:00 a.m. Rats in the Mg^++-treated group received drinking water containing 6 mg/kg/day MgCl2 for 4 months before experiments.
The rats were first habituated to the open-field arena by allowing them to explore it for two daily 15-min sessions. Two identical objects were present in the arenas during habituation sessions; those objects were not used in the subsequent experimental trials. The rat was placed into the arena with two identical sample objects and allowed to explore for 10 min (familiarization phase). For the double-training test, the familiarization phase was repeated with the interval of 10 min. The rat was then removed and the objects were replaced with two new objects; one of the new objects was identical to the sample and the other was a novel object that the rat had never before encountered. The rat was returned to the arena for the retention test and allowed to explore for 5 min (retention test). The retention intervals were 10 min and 24 hours. Rats spent the retention interval in a cage in the colony room. Objects were cleaned thoroughly between trials with 20% ethanol solution to ensure the absence of olfactory cues. The particular objects for a given trial were randomly determined, but each object was used for only one trial per rat.
The criteria for exploration were strictly based on active exploration, in which rats had to be sniffing or touching the object with the nose and/or forepaws. The main dependent measure was the exploration ratio, that is, the proportion of total object-exploration that was spent exploring the novel object (tnovel/[tnovel+tfamiliar]) during the 5-min test phase. To determine whether the rats discriminated between the novel and familiar objects, the exploration ratios obtained under each condition were compared with what would be expected by chance (i.e., a ratio of ˜50%), using one-sample Student's t tests.

In the case of [Mg+2] [Mg^++], the “reduction of Ca^2+ influx (ΔF/F)” value [1] is reported as 57±5% and 54±7%, the “reduction of NMDA currents (EPSCNMDA amplitude)” value [1] is reported as 54±7% and 57±5% and the “general status of the rats (body weight, mobility)” value [2] is reported as “did not observe any significant change in the general status”. The “TBS-induced increase in fEPSC amplitude” value [3] was 2.7 fold, the “duration of fEPSC increase” value [3] was “at least 1.5 hours” and the fEPSC2/fEPSC1 [3] was 2.7±0.6. For the same molecule, the “increase of synaptic strength after TBS induction, average” value [3] was 2.7 fold, the “time to maximum of fEPSC increase after TBS” value [3] was roughly 10 min and the “EPSC1.2/EPSC0.8, overall synaptic inputs during network activity” value [4] was 1.03±0.1. The “EPSP1.2/EPSP0.8, spontaneous miniature EPSPAMPAs” value [4] was 0.9±0.1, the “change in average firing rates of neurons within cultured neural networks” value [4] was “none of these treatments induces a significant change” and the “postsynaptic evoked current response to glutamate (AMPA-R insertion)” value [5] was “showed significant levels of AMPA-R insertion; also recorded: increased current amplitude over time”. For the same molecule, the “increase of synaptic density” value [6] was roughly 30%, the “neuronal density and morphology” value [6] was “normal neuronal density and morphology” and the F2/F1 [7] was 2.3±0.1. The N2/N1 [7] was 2.1±0.1, the “Pr increase after TBS” value [7] was 2.3 fold and the “enhancement of synaptic plasticity” value [7] was roughly 2 fold. The “increase in number of detectable FM puncta after TBS” value [7] was 2.1 fold, the “increase in total presynaptic strength after TBS” value [7] was 5.5 fold and the “increase in total presynaptic strength after induction” value [7] was 3.9 fold. For the same molecule, the “increase of plasticity of presynaptic terminals (S2/S1)” value [7] was 2.4 fold, the “increase of synaptic strength at optimum concentration” value [7] was “up to approximately five-fold” and the “optimal concentration for plasticity (maximal potentiability)” value [7] was 1.2 mM. For the same molecule, the “plasticity of presynaptic terminals after partial block of Ca flux” value [7] was “significant increases of plasticity”, the “plasticity under long term treatments” value [7] was “retain high plasticity persistently” and the “time for which potentiation was stable” value [7] was “at least 1.5 hours”. The “effect on exploratory activity or motivation” value [8] was “no effect on exploratory activity or motivation”, the “exploratory preference towards the novel object, short-term and long-term memory trials” value [8] was “significant exploratory preference towards the novel object” and the “preference to the novel object, long-term” value [8] was 60%. For the same molecule, the “preference to the novel object, short-term memory test” value [8] was 75%, the “preference towards the novel object, long-term memory test” value [8] was “retained the same level of preference for 24 hours; also recorded: significant exploratory preference towards the novel object in long-term memory trials” and the “total time exploring both identical objects during training” value [8] was 24.1 ± 2.5 s.
